# From patent publication US12599136B2, “Substituted isophthalic acid diamides and their use as herbicides” (Bayer Aktiengesellschaft, priority 2020, dated 2026)
# Columns and labels:
# Format in all cases: in vivo
# Matricaria inodora [1] = assay: Post-emergence herbicidal action against MATIN; details: for Post-emergence action against MATIN in %: visual assessment about 3 weeks after treatment
# Procedure, shortened: (§1)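 A WP or EC formulation diluted in water with 0.2% wetting agent was sprayed at 600 to 800 l/ha onto one-leaf-stage plants grown in sandy loam. About 3 weeks later, action was rated visually in percent, 100% being dead plants.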
# Cyperus esculentus [2] = assay: Pre-emergence herbicidal action against CYPES; details: for Pre-emergence action against CYPES: visual score after 3 weeks vs untreated controls; for Herbicidal action against CYPES: comparative experiment, pre-emergence
# Procedure, shortened: (§2)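 Greenhouse pots of sandy loam held seeds covered with soil, onto which the compound was applied before emergence. An aqueous suspension or emulsion of WP or EC was used at 600 to 800 l/ha with 0.2% wetting agent. Percent damage was judged visually at 3 weeks.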
# Lolium rigidum [3] = assay: Post-emergence herbicidal action against LOLRI
# Procedure, shortened: as §1
# Veronica persica [4] = assay: Pre-emergence herbicidal action against VERPE
# Procedure, shortened: as §2
# Amaranthus retroflexus [5] = assay: Post-emergence herbicidal action against AMARE; details: visual assessment about 3 weeks after treatment
# Procedure, shortened: as §1
# Abutilon theophrasti [6] = assay: Post-emergence herbicidal action against ABUTH
# Procedure, shortened: as §1
# Cyperus esculentus [7] = assay: Post-emergence herbicidal action against CYPES; details: visual assessment about 3 weeks after treatment
# Procedure, shortened: as §1
# Echinochloa crus-galli [8] = assay: Pre-emergence herbicidal action against ECHCG; details: for Pre-emergence action against ECHCG: visual score after 3 weeks vs untreated controls; for Herbicidal action against ECHCG: comparative experiment, pre-emergence
# Procedure, shortened: as §2
# Setaria viridis [9] = assay: Post-emergence herbicidal action against SETVI; details: for Post-emergence action against SETVI in %: visual assessment about 3 weeks after treatment
# Procedure, shortened: as §1
# Pharbitis purpurea = assay: Post-emergence herbicidal action against PHBPU; details: 80 g/ha, visual assessment about 3 weeks after treatment
# Procedure, shortened: as §1
# Veronica persica [10] = assay: Post-emergence herbicidal action against VERPE; details: visual assessment about 3 weeks after treatment
# Procedure, shortened: as §1
# Alopecurus myosuroides [11] = assay: Post-emergence herbicidal action against ALOMY
# Procedure, shortened: as §1
# Matricaria inodora [12] = assay: Pre-emergence herbicidal action against MATIN; details: for Pre-emergence action against MATIN: visual score after 3 weeks vs untreated controls
# Procedure, shortened: as §2
# Polygonum convolvulus [13] = assay: Post-emergence herbicidal action against POLCO; details: 80 g/ha, visual assessment about 3 weeks after treatment
# Procedure, shortened: as §1
# Hordeum murinum [14] = assay: Post-emergence herbicidal action against HORMU
# Experimental: Seeds of monocotyledonous and dicotyledonous weed and crop plants are laid out in sandy loam soil in wood-fiber pots, covered with soil and cultivated in a greenhouse under good growth conditions. 2 to 3 weeks after sowing, the test plants are treated at the one-leaf stage. The compounds of the invention, formulated in the form of wettable powders (WP) or as emulsion concentrates (EC), are then sprayed onto the green parts of the plants in the form of an aqueous suspension or emulsion at a water application rate equivalent to 600 to 800 l/ha, with addition of 0.2% wetting agent. After the test plants have been left to stand in the greenhouse under optimal growth conditions for about 3 weeks, the action of the preparations is assessed visually in comparison to untreated controls (herbicidal action in percent (%): 100% activity=the plants have died, 0% activity=like control plants). […] The tables below illustrate, in an illustrative manner, the post-emergence herbicidal action of the compounds of the invention, the herbicidal activity being stated in percent.
# Setaria viridis [15] = assay: Pre-emergence herbicidal action against SETVI; details: for Herbicidal action against SETVI: comparative experiment
# Procedure, shortened: as §2
# Stellaria media [16] = assay: Pre-emergence herbicidal action against STEME
# Procedure, shortened: as §2
# Abutilon theophrasti [17] = assay: Pre-emergence herbicidal action against ABUTH; details: for Pre-emergence action against ABUTH: visual score after 3 weeks vs untreated controls
# Procedure, shortened: as §2
# Stellaria media [18] = assay: Post-emergence herbicidal action against STEME; details: for Post-emergence action against STEME in %: visual assessment about 3 weeks after treatment
# Procedure, shortened: as §1
# Avena fatua [19] = assay: Pre-emergence herbicidal action against AVEFA; details: for Pre-emergence action against AVEFA: visual score after 3 weeks vs untreated controls
# Procedure, shortened: as §2
# Alopecurus myosuroides [20] = assay: Pre-emergence herbicidal action against ALOMY; details: for Pre-emergence action against ALOMY: visual score after 3 weeks vs untreated controls
# Procedure, shortened: as §2
# Viola tricolor [21] = assay: Pre-emergence herbicidal action against VIOTR; details: 320 g/ha
# Procedure, shortened: as §2
# Amaranthus retroflexus [22] = assay: Pre-emergence herbicidal action against AMARE; details: for Pre-emergence action against AMARE: visual score after 3 weeks vs untreated controls; for Herbicidal action against AMARE: comparative experiment, pre-emergence
# Procedure, shortened: as §2
# Echinochloa crus-galli [23] = assay: Post-emergence herbicidal action against ECHCG; details: visual assessment about 3 weeks after treatment
# Procedure, shortened: as §1
# Polygonum convolvulus [24] = assay: Pre-emergence herbicidal action against POLCO; details: 320 g/ha
# Procedure, shortened: as §2
# Viola tricolor [25] = assay: Post-emergence herbicidal action against VIOTR
# Procedure, shortened: as §1
# Hordeum murinum [26] = assay: Pre-emergence herbicidal action against HORMU; details: visual score after 3 weeks vs untreated controls
# Procedure, shortened: as §2
# Avena fatua [27] = assay: Post-emergence herbicidal action against AVEFA; details: for Post-emergence action against AVEFA in %: visual assessment about 3 weeks after treatment
# Procedure, shortened: as §1
# Lolium rigidum [28] = assay: Pre-emergence herbicidal action against LOLRI
# Procedure, shortened: as §2
# [29] = comparative experiment, 5 g a.i./ha
# [30] = comparative experiment, pre-emergence, 20 g a.i./ha
# [31] = comparative experiment, pre-emergence, 80 g a.i./ha
smiles,measurement,setting,value
CN(C)C(=O)c1c(C(F)(F)F)ccc(C(=O)Nc2nnnn2C)c1Cl [Example 1-123],Post-emergence action against MATIN in %,Matricaria inodora [1]; 5 g/ha,80%
same,Post-emergence action against MATIN in %,Matricaria inodora [1]; 20 g/ha,80%
same,Post-emergence action against MATIN in %,Matricaria inodora [1]; 80 g/ha,100%
same,Herbicidal action against MATIN,Matricaria inodora [1]; [29],80
same,Pre-emergence action against CYPES,Cyperus esculentus [2]; 20 g/ha,80%
same,Pre-emergence action against CYPES,Cyperus esculentus [2]; 80 g/ha,100%
same,Pre-emergence action against CYPES,Cyperus esculentus [2]; 320 g/ha,100%
same,Herbicidal action against CYPES,Cyperus esculentus [2]; 20 g a.i./ha,80
same,Herbicidal action against CYPES,Cyperus esculentus [2]; 80 g a.i./ha,100
same,Post-emergence action against LOLRI in %,Lolium rigidum [3]; 20 g/ha,80%
same,Post-emergence action against LOLRI in %,Lolium rigidum [3]; 80 g/ha,90%
same,Pre-emergence action against VERPE,Veronica persica [4]; 80 g/ha,80%
same,Pre-emergence action against VERPE,Veronica persica [4]; 320 g/ha,90%
same,Post-emergence action against AMARE in %,Amaranthus retroflexus [5]; 5 g/ha,100%
same,Post-emergence action against AMARE in %,Amaranthus retroflexus [5]; 20 g/ha,100%
same,Post-emergence action against AMARE in %,Amaranthus retroflexus [5]; 80 g/ha,100%
same,Post-emergence action against ABUTH,Abutilon theophrasti [6]; 5 g/ha,100%
same,Post-emergence action against ABUTH,Abutilon theophrasti [6]; 20 g/ha,100%
same,Post-emergence action against ABUTH,Abutilon theophrasti [6]; 80 g/ha,100%
same,Herbicidal action against ABUTH,Abutilon theophrasti [6]; [29],100
same,Post-emergence action against CYPES in %,Cyperus esculentus [7]; 5 g/ha,80%
same,Post-emergence action against CYPES in %,Cyperus esculentus [7]; 20 g/ha,90%
same,Post-emergence action against CYPES in %,Cyperus esculentus [7]; 80 g/ha,90%
same,Pre-emergence action against ECHCG,Echinochloa crus-galli [8]; 20 g/ha,90%
same,Pre-emergence action against ECHCG,Echinochloa crus-galli [8]; 80 g/ha,100%
same,Pre-emergence action against ECHCG,Echinochloa crus-galli [8]; 320 g/ha,100%
same,Herbicidal action against ECHCG,Echinochloa crus-galli [8]; 20 g a.i./ha,90
same,Herbicidal action against ECHCG,Echinochloa crus-galli [8]; 80 g a.i./ha,100
same,Post-emergence action against SETVI in %,Setaria viridis [9]; 5 g/ha,100%
same,Post-emergence action against SETVI in %,Setaria viridis [9]; 20 g/ha,100%
same,Post-emergence action against SETVI in %,Setaria viridis [9]; 80 g/ha,100%
same,Herbicidal action against SETVI,Setaria viridis [9]; [29],100
same,Post-emergence action against PHBPU in %,Pharbitis purpurea,100%
same,Post-emergence action against VERPE in %,Veronica persica [10]; 5 g/ha,80%
same,Post-emergence action against VERPE in %,Veronica persica [10]; 20 g/ha,80%
same,Post-emergence action against VERPE in %,Veronica persica [10]; 80 g/ha,100%
same,Post-emergence action against ALOMY,Alopecurus myosuroides [11]; 5 g/ha,100%
same,Post-emergence action against ALOMY,Alopecurus myosuroides [11]; 20 g/ha,100%
same,Post-emergence action against ALOMY,Alopecurus myosuroides [11]; 80 g/ha,100%
same,Herbicidal action against ALOMY,Alopecurus myosuroides [11]; [29],100
same,Pre-emergence action against MATIN,Matricaria inodora [12]; 80 g/ha,90%
same,Pre-emergence action against MATIN,Matricaria inodora [12]; 320 g/ha,90%
same,Herbicidal action against MATIN,Matricaria inodora [12]; [30],70
same,Post-emergence action against POLCO in %,Polygonum convolvulus [13],90%
same,Post-emergence action against HORMU in %,Hordeum murinum [14]; 5 g/ha,80%
same,Post-emergence action against HORMU in %,Hordeum murinum [14]; 20 g/ha,80%
same,Post-emergence action against HORMU in %,Hordeum murinum [14]; 80 g/ha,100%
same,Pre-emergence action against SETVI,Setaria viridis [15]; 20 g/ha,90%
same,Pre-emergence action against SETVI,Setaria viridis [15]; 80 g/ha,100%
same,Pre-emergence action against SETVI,Setaria viridis [15]; 320 g/ha,100%
same,Herbicidal action against SETVI,Setaria viridis [15]; 20 g a.i./ha,90
same,Herbicidal action against SETVI,Setaria viridis [15]; 80 g a.i./ha,100
same,Pre-emergence action against STEME,Stellaria media [16]; 20 g/ha,90%
same,Pre-emergence action against STEME,Stellaria media [16]; 80 g/ha,90%
same,Pre-emergence action against STEME,Stellaria media [16]; 320 g/ha,90%
same,Pre-emergence action against ABUTH,Abutilon theophrasti [17]; 20 g/ha,80%
same,Pre-emergence action against ABUTH,Abutilon theophrasti [17]; 80 g/ha,100%
same,Pre-emergence action against ABUTH,Abutilon theophrasti [17]; Dosage column 320 g/ha (heading prints 3200 g/ha),100%
same,Herbicidal action against ABUTH,Abutilon theophrasti [17]; [31],100
same,Post-emergence action against STEME in %,Stellaria media [18]; 5 g/ha,100%
same,Post-emergence action against STEME in %,Stellaria media [18]; 20 g/ha,100%
same,Post-emergence action against STEME in %,Stellaria media [18]; 80 g/ha,100%
same,Herbicidal action against STEME,Stellaria media [18]; [29],100
same,Pre-emergence action against AVEFA,Avena fatua [19]; 80 g/ha,90%
same,Pre-emergence action against AVEFA,Avena fatua [19]; 320 g/ha,100%
same,Herbicidal action against AVEFA,Avena fatua [19]; [31],90
same,Pre-emergence action against ALOMY,Alopecurus myosuroides [20]; 80 g/ha,80%
same,Pre-emergence action against ALOMY,Alopecurus myosuroides [20]; 320 g/ha,100%
same,Herbicidal action against ALOMY,Alopecurus myosuroides [20]; [30],70
same,Pre-emergence action against VIOTR,Viola tricolor [21],90%
same,Pre-emergence action against AMARE,Amaranthus retroflexus [22]; 20 g/ha,90%
same,Pre-emergence action against AMARE,Amaranthus retroflexus [22]; 80 g/ha,100%
same,Pre-emergence action against AMARE,Amaranthus retroflexus [22]; 320 g/ha,100%
same,Herbicidal action against AMARE,Amaranthus retroflexus [22]; 20 g a.i./ha,90
same,Herbicidal action against AMARE,Amaranthus retroflexus [22]; 80 g a.i./ha,100
same,Post-emergence action against ECHCG in %,Echinochloa crus-galli [23]; 5 g/ha,100%
same,Post-emergence action against ECHCG in %,Echinochloa crus-galli [23]; 20 g/ha,100%
same,Post-emergence action against ECHCG in %,Echinochloa crus-galli [23]; 80 g/ha,100%
same,Pre-emergence action against POLCO,Polygonum convolvulus [24],90%
same,Post-emergence action against VIOTR in %,Viola tricolor [25]; 5 g/ha,80%
same,Post-emergence action against VIOTR in %,Viola tricolor [25]; 20 g/ha,100%
same,Post-emergence action against VIOTR in %,Viola tricolor [25]; 80 g/ha,100%
same,Pre-emergence action against HORMU,Hordeum murinum [26]; 80 g/ha,90%
same,Pre-emergence action against HORMU,Hordeum murinum [26]; 320 g/ha,100%
same,Post-emergence action against AVEFA in %,Avena fatua [27]; 5 g/ha,80%
same,Post-emergence action against AVEFA in %,Avena fatua [27]; 20 g/ha,90%
same,Post-emergence action against AVEFA in %,Avena fatua [27]; 80 g/ha,100%
same,Herbicidal action against AVEFA,Avena fatua [27]; [29],80
same,Pre-emergence action against LOLRI,Lolium rigidum [28]; 80 g/ha,80%
same,Pre-emergence action against LOLRI,Lolium rigidum [28]; 320 g/ha,100%
